# Read-outs that look alike come from different tables or passages of the source.
# B1: PM-477: genetically engineered recombinant Gardnerella-specific endolysin, amino acid sequence SEQ ID NO: 1, His-tag cleaved off (protein)
# chain: SKRGIDVSEWQGDIDFNAVKASGVEFVIIRAGYGIGCKDKWFEQNYRKAKTCGLDVGAYWYSYANSGFEAAEEAQSCVNMLSGKSFEYPVYFDLEEKSQLNRGRAFCDSLITGFCNKLESCGYYAGFYTSLSTANNLVSAHVRNRYALWIAQWNTHCSYQGSYGLWQYSSSGSVPGVAGRVDMDYAYVDYPSIIKNVGLNGYKNGGSYTAPQISSIDEVAREVINGDWGNGNERKQRLTSAGYDYASVQNKVNELLGVKAYRKSVDELAREVIRGTWGNGSTRKQRLTQAGYDYNAVQKRVNELL
# modifications: His-tag cleaved off; H2B10
# How the values were obtained:
# [1] = test system: Gardnerella swidsinskii; assay: microbe, parasite or virus in culture; assay type: cell-based; settings: for MIC before passaging: 48 h incubation
# Method: (§1) The minimum inhibitory concentration (MIC), which is a standard measure of the activity of antimicrobials, was determined according to the Clinical and Laboratory Standards Institute protocol (2018) Methods for Antimicrobial Susceptibility Testing of Anaerobic Bacteria (Carpenter et al., 2018). […] Controls for growth in the absence of antimicrobials were also included. OD600 was recorded by a microplate reader (Tecan, Grodig, Austria) after incubation at 37° C. for 48 h or, for some fast-growing strains, after incubation for 24 h. Absence of growth was defined as OD600≤0.14. […] MIC readout and MBC99.5 spotting were performed after 72 h incubation for H2B10B11.
# (§2) However, topical intravaginal antibiotic administration is recommended for BV therapy, which allows to reach concentrations of active ingredients in the mg/mL range. […] Abbreviations: n.d., not determined; SJHB, St. Jan Hospital Bruges.
# (§3) MIC90 is defined as the MIC value for 90% of the tested strains. For PM-477 (H2B10), the resistance breakpoint is not defined, therefore a “% resistant” is not defined (n.d.).
# [2] = test system: Gardnerella vaginalis; assay: microbe, parasite or virus in culture; assay type: cell-based; settings: for MIC before passaging: 48 h incubation
# Method: as §1, §2, §3
# [3] = test system: Six Gardnerella strains; assay: microbe, parasite or virus in culture; assay type: cell-based, Gardnerella spp.
# Method: (§4) The final volume of the reaction was 100 µL and the reactions were performed in triplicate in 384-well plates. The OD600 was measured using a microplate reader (Tecan, Grodig, Austria) to generate timepoint 0 h baseline values. The reactions were incubated anaerobically for 24 h, then the OD600 was measured again, and the MIC was measured as the lowest concentration with OD600<0.14. […] This process was repeated for a maximum of 25 rounds. In each round, the input CFU/mL was determined by quantitative plating.
# (§5) In parallel, one representative of G. vaginalis (ATCC 14018^T) was passaged 25 times with PM-477 (H2B10).
# [4] = test system: Gardnerella strains from vaginal swabs of BV patients; assay: MIC and MBC99.5 on 18 in-house BV patient isolates; assay type: cell-based, Gardnerella spp.
# Method: as §1
# [5] = 0.75% MDZ vaginal gel over 16 weeks, cited from earlier work
# [6] = test system: Gardnerella strains grown as biofilm; assay: MBEC on pre-formed biofilms, summary over ancestor strains; assay type: cell-based, Gardnerella spp.; settings: 40-72 h old pre-formed biofilms
# Method: Gardnerella spp. (see figures for strain specification) was resuspended in brain heart infusion broth supplemented with 2% (w/v) gelatin, 0.5% yeast extract (w/v), 0.1% starch (w/v) and 0.25% glucose (w/v) (sBHIG). Passaged strains were resuspended in unbuffered NYCB supplemented with 1% glucose (w/v) (sNYCB). The OD600 was set to 0.1 (approx. 10^7-10^8 CFU/mL) and the cell suspension was diluted 1:10 in growth medium as input for biofilm formation. A total of 200 μL of the respective bacterial suspensions was added to 96-well flat bottom plates (tissue-culture treated, Sigma-Aldrich). The biofilms were grown under anaerobic conditions at 37° C. for 40 to 72 hours, depending on the isolate. Subsequently, the supernatant was removed, and the biofilm was treated with antimicrobials dissolved in sBHIG (at pH 5 for treatment with PM-477 (H2B10), and unbuffered for treatment with antibiotics) in 100 μL and incubated anaerobically at 37° C. for another 24 hours. After the treatment, the biofilms were washed twice with 200 μL 1x PBS and dissolved by vigorous pipetting (40x up and down). Serial dilutions of the dissolved cells were spotted on chocolate agar plates. The plates were incubated anaerobically for two to three days and the minimum biofilm eradication concentration (MBEC) of the endolysin or the antibiotics in use were calculated. […]
# [7] = test system: G. vaginalis (ATCC 14018T); assay: Serial passaging for resistance formation with PM-477; assay type: cell-based, Gardnerella vaginalis; settings: G. vaginalis (ATCC 14018T) passaged 25 times with PM-477 (H2B10)
# Method: as §4, §5
# [8] = G. swidsinskii (BV7) UGent BV7.1
# [9] = Gardnerella vaginalis, N=8 strains
# [10] = Gardnerella swidsinskii, N=4 strains
molecule,measurement,setting,value
"Cc1ncc([N+](=O)[O-])n1CCO [MDZ, metronidazole]",MBC99.5,[1]; [8],>512 µg/mL
same,MIC90,[1]; Gardnerella swidsinskii,> 256 µg/mL
same,MIC,"[1]; Gardnerella swidsinskii, 48 h, read-out: MIC before passaging, G. swidsinskii (GS 9838-1T), 48 h incubation",256 µg/mL
same,MIC,"[1]; Gardnerella swidsinskii, 48 h, read-out: MIC before passaging, G. swidsinskii (UGent BV 7.1), 48 h incubation",256 µg/mL
same,MIC,"[1]; Gardnerella swidsinskii, G. swidsinskii (BV7) UGent BV7.1, suspension, read-out: MIC",256 µg/mL
same,MIC,"[1]; Gardnerella swidsinskii, G. swidsinskii (BV139) UGent BV139.3, suspension, read-out: MIC",256 µg/mL
same,MIC,"[1]; Gardnerella swidsinskii, G. swidsinskii (Gs23) GS 10234, suspension",64 µg/mL
same,MIC,"[1]; Gardnerella swidsinskii, G. swidsinskii (Gs24) GS 9838-1(T), suspension, read-out: MIC",256 µg/mL
same,MBC,"[1]; Gardnerella swidsinskii, read-out: MBC99.5, G. swidsinskii (BV139) UGent BV139.3",256 µg/mL
same,MBC,"[1]; Gardnerella swidsinskii, G. swidsinskii (Gs24) GS 9838-1(T), read-out: MBC99.5",> 512 µg/mL
same,MIC90,[2]; Gardnerella vaginalis,64 µg/mL
same,MIC,"[2]; Gardnerella vaginalis, 48 h, read-out: MIC before passaging, G. vaginalis (ATCC 14018T), 48 h incubation",8 µg/mL
same,MIC,"[2]; Gardnerella vaginalis, 48 h, read-out: MIC before passaging, G. vaginalis (UGent 09.07), 48 h incubation",64 µg/mL
same,MIC,"[2]; Gardnerella vaginalis, 48 h, read-out: MIC before passaging, G. vaginalis (UGent BV50), 48 h incubation",32 µg/mL
same,MBC,"[2]; Gardnerella vaginalis, ATCC14018, 24 h, read-out: MBC99.5, G. vaginalis (Gv9) ATCC 14018(T), reduces CFU by 99.5% within 24 h",16 µg/mL
same,MIC,"[2]; Gardnerella vaginalis, ATCC14018, G. vaginalis (Gv9) ATCC 14018(T), suspension",8 µg/mL
same,MIC,"[2]; Gardnerella vaginalis, G. vaginalis (BV50) UGent BV50.1, suspension",32 µg/mL
same,MIC,"[2]; Gardnerella vaginalis, G. vaginalis (FB049) UGent FB049-01, suspension",16 µg/mL
same,MIC,"[2]; Gardnerella vaginalis, G. vaginalis (FB061) UGent FB061-03, suspension, read-out: MIC",8 µg/mL
same,MBC,"[2]; Gardnerella vaginalis, G. vaginalis (FB061) UGent FB061-03, read-out: MBC99.5",32 µg/mL
same,MIC,"[2]; Gardnerella vaginalis, G. vaginalis (Gv1) UGent 09.07, suspension, read-out: MIC",64 µg/mL
same,MBC,"[2]; Gardnerella vaginalis, G. vaginalis (Gv1) UGent 09.07, read-out: MBC99.5",512 µg/mL
same,MIC,"[2]; Gardnerella vaginalis, G. vaginalis (Gv5) UGent 09.01, suspension, read-out: MIC",8 µg/mL
same,MBC,"[2]; Gardnerella vaginalis, G. vaginalis (Gv5) UGent 09.01, read-out: MBC99.5",512 µg/mL
same,MIC,"[2]; Gardnerella vaginalis, G. vaginalis (Gv8) UGent 25.49, suspension, read-out: MIC",8 µg/mL
same,MBC,"[2]; Gardnerella vaginalis, G. vaginalis (Gv8) UGent 25.49, read-out: MBC99.5",32 µg/mL
same,MIC Range,[2]; [9],8 to 64 µg/mL
same,MBC,"[2]; Gardnerella vaginalis, read-out: MBC99.5, G. vaginalis (BV111) UGent BV111.5",64 µg/mL
same,MBC,"[2]; Gardnerella vaginalis, read-out: MBC99.5, G. vaginalis (FB049) UGent FB049-01",64 µg/mL
same,MIC,"[3]; Gardnerella, read-out: MIC after 9 rounds of passaging, 4 out of 6 strains, maximal concentration in use",> 512 µg/mL
same,pre-passaging MIC range,[3]; six Gardnerella strains before passaging,8 to 256 µg/mL
same,MIC,"[4]; Gardnerella, 72 h, 18 in-house BV patient isolates, read-out: median MIC",64 µg/mL
same,MBC,"[4]; Gardnerella, 18 in-house BV patient isolates, read-out: median MBC99.5",1540 µg/mL
same,number of resistant isolates (MIC>32 μg/mL),[4]; panel of 18 isolates from vaginal swabs of BV patients,10
same,probability of lasting cure,[5]; 12 weeks after end of therapy (week 28),34%
same,probability of lasting cure,[5]; after 16 weeks,70%
B1,MBC99.5,[1]; [8],0.25 µg/mL
same,MIC,"[1]; G. swidsinskii (BV7) UGent BV7.1, suspension",0.25 µg/mL
same,MBC99.5,[1]; G. swidsinskii (BV139) UGent BV139.3,0.125 µg/mL
same,MIC before passaging,[1]; G. swidsinskii (GS 9838-1T),0.03 µg/mL
same,MBC99.5,[1]; G. swidsinskii (Gs23) GS 10234,0.125 µg/mL
same,MIC,"[1]; G. swidsinskii (Gs23) GS 10234, suspension",0.063 µg/mL
same,MBC99.5,[1]; G. swidsinskii (Gs24) GS 9838-1(T),0.06 µg/mL
same,MIC,"[1]; G. swidsinskii (Gs24) GS 9838-1(T), suspension",0.03 µg/mL
same,MIC before passaging,[1]; G. swidsinskii (UGent BV 7.1),0.25 µg/mL
same,MIC90,[1]; [10],0.25 µg/mL
same,MIC Range,[1]; [10],0.03 to 0.25 µg/mL
same,MIC before passaging,[2]; G. vaginalis (ATCC 14018T),0.06 µg/mL
same,MBC99.5,[2]; G. vaginalis (BV50) UGent BV50.1,1 µg/mL
same,MIC,"[2]; G. vaginalis (BV50) UGent BV50.1, suspension",0.5 µg/mL
same,MBC99.5,[2]; G. vaginalis (BV111) UGent BV111.5,0.5 µg/mL
same,MIC,"[2]; G. vaginalis (BV111) UGent BV111.5, suspension",0.25 µg/mL
same,MBC99.5,[2]; G. vaginalis (FB049) UGent FB049-01,0.25 µg/mL
same,MIC,"[2]; G. vaginalis (FB049) UGent FB049-01, suspension",0.25 µg/mL
same,MBC99.5,[2]; G. vaginalis (FB061) UGent FB061-03,2 µg/mL
same,MIC,"[2]; G. vaginalis (FB061) UGent FB061-03, suspension",0.5 µg/mL
same,MBC99.5,[2]; G. vaginalis (Gv1) UGent 09.07,1 µg/mL
same,MIC,"[2]; G. vaginalis (Gv1) UGent 09.07, suspension",0.25 µg/mL
same,MBC99.5,[2]; G. vaginalis (Gv5) UGent 09.01,0.125 µg/mL
same,MIC,"[2]; G. vaginalis (Gv5) UGent 09.01, suspension",<0.03 µg/mL
same,MBC99.5,[2]; G. vaginalis (Gv8) UGent 25.49,0.125 µg/mL
same,MIC,"[2]; G. vaginalis (Gv8) UGent 25.49, suspension",0.03 µg/mL
same,MIC,"[2]; G. vaginalis (Gv9) ATCC 14018(T), suspension",0.06 µg/mL
same,MBC99.5,"[2]; G. vaginalis (Gv9) ATCC 14018(T), reduces CFU by 99.5% within 24 h",0.25 µg/mL
same,MIC before passaging,[2]; G. vaginalis (UGent 09.07),0.25 µg/mL
same,MIC before passaging,[2]; G. vaginalis (UGent BV50),0.5 µg/mL
same,MIC Range,[2]; [9],<0.03 to 0.5 µg/mL
same,MIC90,"[2]; Gardnerella vaginalis, N=8 strains, MIC value for 90% of the tested strains",0.5 µg/mL
same,"MBEC, range over strains",[6],<2 to 32 µg/mL
same,MIC after 25 rounds of passaging,[7],8 µg/mL
